Reference: patent US20100099698A1, “Compositions for Improving Skin Conditions Comprising Matrine or Its Oxidized Derivatives” (Biospectrum Inc., priority 2007, published 2010)

Tests used:
[1] = test system: pigmentation of skin; assay: Skin whitening of UV-induced pigmentation, chromameter L* value; assay type: in vivo, brown guinea pigs; settings: for Whitening effects (ΔL): topical once or twice a day for 50 days, UV-pigmented abdominal skin
Procedure: A whitening effect of matrine and oxymatrine was measured using brown guinea pigs (Charles River Laboratories, Inc.), known to increase its pigmentation upon exposure to ultraviolet light, like in humans. To cause pigmentation in the brown guinea pig by ultraviolet (UV), aluminum foil with square windows of 3×3 cm^2 was adhered to hair-removed abdominal skin of brown guinea pig, and then UV light was irradiated thereon with a SE lamp (wavelength 290-320 nm, Toshiba) (total irradiation energy=1350 mJ/cm^2). After UV irradiation, the aluminum foil was removed and samples (matrine, oxymatrine or albutin) were applied as the following method. […] From the maximum, samples were applied. Applications performed once or twice a day for 50 days. […] The control with only the solvent was applied to another site. Occurrence of cumulative irritation also was examined. The degree of pigmentation of skin was determined using a chromameter (CR2002, MINOLTA, JP) to estimate the effects of applied samples. L*a*b* colorimetric system was used to classify color and L* value was used as standard in the present invention. The L* value was corrected using white board standard and was measured more than five times at one site, repeatedly. Pigmentation was evenly distributed. Skin color differences (ΔL*) between application initial point and application terminal point were obtained and then using these values, their effects of the applied samples were estimated. ΔL*=L* value at […] after application-L* value at application initial day. Equation 1 ΔL* values were obtained both at sample application site and control application site and compared, whereby the effects of the whitening substances can be estimated.

[2] = test system: collagen (Type 1 collagen) biosynthesis; assay: Collagen synthesis: procollagen type I C-peptide (PICP) EIA in medium of treated fibroblasts; assay type: cell-based; settings: 24 hr, human fibroblasts
Procedure: (§1) Human fibroblasts (commercially available from pacific) were seeded into a 6-well plate (2×10^5 cells/well) and the well plate was incubated in a 5% CO2 incubator for 24 hr at 37° C. After 24 hr, the medium in each well was removed and samples were treated with various concentrations, followed by incubating again for 24 hr. Following incubation, the cell medium was collected and was used as samples. To measure cytotoxicity of samples to fibroblasts, MIT reagent (1 mg/ml) was added to each well in 1/10 fold volume of the remaining medium, incubated for 3 hr and the medium was eliminated. The medium was dissolved in DMSO and its absorbance at 540 nm was measured.
The extent of collagen synthesis was determined by measuring the amount of procollagen type I C-peptide (PICP) in cell medium using Procollagen Type I C-peptide EIA kit (MK101, Takara, Kyoto, Japan). The method was performed in accordance with manufacturer's protocol.

[3] = test system: Human fibroblasts; assay: Cytotoxicity to fibroblasts (MIT reagent, absorbance 540 nm); assay type: cell-based; settings: 1 μM, 10 μM and 50 μM; compared to RA (retinoic acid); FIG. 1
Procedure: as §1

[4] = test system: COX (cyclooxygenase); assay: COX inhibitory ability in LPS-treated THP-1 cells, [1-14C] arachidonic acid, TLC; assay type: cell-based, human; settings: LPS alone = 100
Procedure: To determine whether matrine and oxymatrine had anti-inflammatory effects, the experiment of COX (cyclooxygenase) inhibitory ability was carried out using human monocytic cell, THP-1 cell (Korean Cell Line Bank) according to conventional method. […] J. Van de Ouderaaa and Muytenhek. THP-1 cell line was cultivated and aliquoted into 24-well plate. The incubation volume per well was adjusted to 500 μl, 2 μl of the sample compound, which dissolved in […] (1 μg/ml, Sigma) and solvents described in the following Table 9 respectively, was added and cultivated for 24-48 hr under the same condition. After 24-48 hr, calcium ionophore (Sigma) and [1-14C] arachidonic acid 1 μl (in EtOH, 0.1 μCi/ml, Sigma) were added to each well, and cultivated for 10 min under the same condition. Following the cultivation, citric acid was added to each well for adjusting to pH 3.5, shaked, each 500 μl of cultivation solution taken from the plate was aliquoted into micro centrifuge tube, 700 μl of ethylacetate was added to thereto, and the solution was shaking extracted for 10 min. 500 μl of ethylacetate layer was concentrated using speed vacuum dryer for 20 min, 20 μl of the residual was dissolved in ethylacetate, and the resultant was employed with authentic standard in TLC plate. The radioactive band was identified by authentic eicosanoid standards, the radioactivity of the identified band was measured using BAS 2000 bio-imaging analyzer (Fuji, JP) (Table 9).

[5] = molecular target: T1, tyrosinase (Mus musculus, UniProt P11344); assay: Inhibition of intracellular tyrosinase activity in melanoma cells; assay type: cell-based, Murine; settings: B16-F1, read-out: Inhibitory rate of intracellular tyrosinase activity (%)
T1 construct: This cell pellets were lysated using lysis buffer, centrifuged at 12,000 rpm for 10 min and the supernatant was collected; endogenous in cells; host or cells: B16 F1 mouse melanoma cells (Korean Cell Line Bank)
T1 sequence (P11344 19-533): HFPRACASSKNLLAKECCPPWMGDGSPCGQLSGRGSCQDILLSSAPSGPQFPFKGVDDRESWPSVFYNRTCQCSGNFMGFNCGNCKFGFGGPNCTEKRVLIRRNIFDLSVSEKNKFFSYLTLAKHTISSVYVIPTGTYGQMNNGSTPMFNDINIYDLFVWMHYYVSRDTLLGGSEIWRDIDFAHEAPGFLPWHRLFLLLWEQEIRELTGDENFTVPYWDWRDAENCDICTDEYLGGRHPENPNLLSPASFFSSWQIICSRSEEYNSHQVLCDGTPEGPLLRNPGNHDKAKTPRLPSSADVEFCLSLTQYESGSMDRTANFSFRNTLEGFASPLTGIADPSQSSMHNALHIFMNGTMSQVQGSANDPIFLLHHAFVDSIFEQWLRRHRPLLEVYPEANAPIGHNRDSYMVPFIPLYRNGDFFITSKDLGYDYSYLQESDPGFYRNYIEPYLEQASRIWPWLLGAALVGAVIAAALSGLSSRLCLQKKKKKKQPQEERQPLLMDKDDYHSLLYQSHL
Procedure: After measuring the inhibition of melanin production by matrine and oxymatrine using B16 mouse melanoma cells (Korean Cell Line Bank), the measurement was compared with that for the inhibition of intracellular tyrosinase activities by arbutin, known as a melanin production inhibitor.
Murine melanoma (B-16 F1) cells were seeded into each well of a 6-well plate (1×10^5 cells/well) in DMEM containing 10% FBS (fetal bovine serum) and the cells were cultured to about more than 80% adherence by incubating in a CO2 incubator under conditions of 37° C. and 5.0% CO2. After cultivation, the medium was removed and samples were replaced in medium diluted at suitable concentration, followed by incubating for 3 days under conditions of 37° C. and 5.0% CO2. […] The cells removing medium were washed with PBS (phosphate buffer saline) and treated with trypsin to collect cells. Number of the collected cells was calculated using hematocytometer, centrifuged at 5,000 to 10,000 rpm for 10 min and the supernatant was eliminated, thereby obtaining pellets. This cell pellets were lysated using lysis buffer, centrifuged at 12,000 rpm for 10 min and the supernatant was collected. Then, the cell solution was measured for absorbance at 492 nm using microplate reader and the activity of tyrosinase per cell constant number was estimated.

Row | SMILES | Whitening effects (ΔL) ([1]; 0.2 %) | Whitening effects (ΔL) ([1]; 1.0 %) | Occurrence of cumulative irritation ([1]; brown guinea pig skin, application for 50 days) | Increasing rate of collagen synthesis (%) ([2]; 1 μM) | Increasing rate of collagen synthesis (%) ([2]; 10 μM) | Increasing rate of collagen synthesis (%) ([2]; 50 μM) | cytotoxicity against human fibroblasts compared to RA [3] | COX activities (%) ([4]; 10 uM with LPS (1 μg/ml)) | COX activities (%) ([4]; 100 uM with LPS (1 μg/ml)) | COX activities (%) ([4]; 500 uM with LPS (1 μg/ml)) | inhibition at 10 µM [5] | inhibition at 100 µM [5] | inhibition at 500 µM [5]
1 | O=C1CCC[C@@H]2[C@H]3CCCN4CCC[C@@H](CN12)[C@@H]34 [Matrine, matrine] | 0.38 | 0.53 | not observing the occurrence of cumulative irritation | 20% | 23% | 40% | lower cytotoxicity | 98% | 87% | 65% | 13% | 32% | 37%
2 | O=C1CCC[C@@H]2[C@H]3CCC[N+]4([O-])CCC[C@@H](CN12)[C@@H]34 (stereo partly drawn) [Oxymatrine, oxymatrine] | 0.24 | 0.50 | – | 11% | 15% | 22% | – | 94% | 81% | 71% | 11% | 29% | 34%
